Five molecules from ChEMBL document CHEMBL5465560, “Selectivity Literature for EUbOPEN Chemogenomic Library” (2024) can be followed below.

Experiment [1] deals with Phosphatidylinositol 4,5-bisphosphate 3-kinase catalytic subunit beta isoform (Homo sapiens) (UniProt P42338). Briefly: Selectivity interaction (KinomeScan (DiscoverX)) EUB0001079a PIK3CB. As to conditions: at 1 µM.
Experiment [2] deals with Histone-lysine N-methyltransferase 2C (Homo sapiens) (UniProt Q8NEZ4). The experiment can be described thus: Selectivity interaction (Methyltransferase screen (Scintillation proximity assays)) EUB0000255b MLL3. (Scintillation proximity formats need no separation of bound from free tracer.)
Experiment [3] addresses T1, Tyrosine-protein kinase JAK3 (Homo sapiens) (UniProt P52333).
T1 sequence (whole entry): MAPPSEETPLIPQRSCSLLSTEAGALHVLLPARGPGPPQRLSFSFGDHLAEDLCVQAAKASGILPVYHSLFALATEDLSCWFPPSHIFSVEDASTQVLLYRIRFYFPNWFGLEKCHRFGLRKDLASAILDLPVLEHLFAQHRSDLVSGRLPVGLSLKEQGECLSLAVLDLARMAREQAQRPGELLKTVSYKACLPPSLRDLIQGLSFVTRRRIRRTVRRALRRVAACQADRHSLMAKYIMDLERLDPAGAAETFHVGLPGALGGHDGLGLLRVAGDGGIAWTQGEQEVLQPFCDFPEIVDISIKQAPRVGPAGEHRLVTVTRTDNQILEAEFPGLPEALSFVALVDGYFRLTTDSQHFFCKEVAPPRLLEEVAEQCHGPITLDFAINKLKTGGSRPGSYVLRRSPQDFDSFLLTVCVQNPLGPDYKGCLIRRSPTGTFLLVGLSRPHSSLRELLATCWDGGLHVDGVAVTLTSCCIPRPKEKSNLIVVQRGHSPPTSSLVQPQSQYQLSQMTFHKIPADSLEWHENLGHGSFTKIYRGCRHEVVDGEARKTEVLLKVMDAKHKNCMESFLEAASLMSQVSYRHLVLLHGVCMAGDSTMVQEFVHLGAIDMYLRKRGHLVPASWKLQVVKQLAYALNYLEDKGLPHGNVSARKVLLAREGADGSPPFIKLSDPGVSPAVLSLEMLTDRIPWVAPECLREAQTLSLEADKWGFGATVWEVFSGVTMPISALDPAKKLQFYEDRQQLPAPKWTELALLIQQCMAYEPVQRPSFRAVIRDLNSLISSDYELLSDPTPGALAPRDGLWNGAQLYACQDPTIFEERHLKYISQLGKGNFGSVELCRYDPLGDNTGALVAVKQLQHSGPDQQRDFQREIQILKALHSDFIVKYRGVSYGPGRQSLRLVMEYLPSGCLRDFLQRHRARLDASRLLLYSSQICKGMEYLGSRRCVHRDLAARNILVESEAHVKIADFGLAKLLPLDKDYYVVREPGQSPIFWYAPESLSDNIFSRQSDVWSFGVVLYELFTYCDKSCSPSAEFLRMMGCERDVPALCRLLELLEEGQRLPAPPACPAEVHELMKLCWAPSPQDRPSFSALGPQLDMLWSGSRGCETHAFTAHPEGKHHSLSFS
Briefly: Selectivity interaction (KinomeScan (DiscoverX)) EUB0000655a JAK3. As to conditions: at 10 µM.

For experiment [4], the target named is T2, Mitogen-activated protein kinase 12 (Homo sapiens) (UniProt P53778).
T2 sequence (whole entry): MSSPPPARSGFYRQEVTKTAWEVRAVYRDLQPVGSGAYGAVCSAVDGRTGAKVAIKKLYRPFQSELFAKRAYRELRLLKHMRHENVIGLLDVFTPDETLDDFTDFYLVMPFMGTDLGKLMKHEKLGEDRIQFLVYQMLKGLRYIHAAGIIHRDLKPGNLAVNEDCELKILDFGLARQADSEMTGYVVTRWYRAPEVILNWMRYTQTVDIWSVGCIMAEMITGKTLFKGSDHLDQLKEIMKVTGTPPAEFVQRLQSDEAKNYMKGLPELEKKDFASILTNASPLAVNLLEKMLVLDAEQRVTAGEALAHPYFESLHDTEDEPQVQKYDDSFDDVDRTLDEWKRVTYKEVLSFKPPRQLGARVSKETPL
The experiment can be described thus: Selectivity interaction (KinomeScan (DiscoverX)) EUB0000045b MAPK12.

For experiment [5], the system named is Epidermal growth factor receptor (Homo sapiens), P00533 [UNDEFINED MUTATION]. The experiment can be described thus: Selectivity interaction (KinomeScan (DiscoverX)) EUB0000045b EGFR. The following applies: at 1 µM.
Experiment [6] addresses Cyclin-dependent kinase 4 (Homo sapiens, UniProt P11802). The experiment can be described thus: Selectivity interaction (Kinase panel (33PanQinase(R) Activity Assay)) EUB0000877a CDK4.
Experiment [7] has as its target Protein kinase C alpha type (Homo sapiens, UniProt P17252). The experiment can be described thus: Selectivity interaction (Kinase panel (33PanQinase(R) Activity Assay)) EUB0000877a PRKCA.

Chain of Histone-lysine N-methyltransferase 2C (Homo sapiens) (Q8NEZ4 whole entry): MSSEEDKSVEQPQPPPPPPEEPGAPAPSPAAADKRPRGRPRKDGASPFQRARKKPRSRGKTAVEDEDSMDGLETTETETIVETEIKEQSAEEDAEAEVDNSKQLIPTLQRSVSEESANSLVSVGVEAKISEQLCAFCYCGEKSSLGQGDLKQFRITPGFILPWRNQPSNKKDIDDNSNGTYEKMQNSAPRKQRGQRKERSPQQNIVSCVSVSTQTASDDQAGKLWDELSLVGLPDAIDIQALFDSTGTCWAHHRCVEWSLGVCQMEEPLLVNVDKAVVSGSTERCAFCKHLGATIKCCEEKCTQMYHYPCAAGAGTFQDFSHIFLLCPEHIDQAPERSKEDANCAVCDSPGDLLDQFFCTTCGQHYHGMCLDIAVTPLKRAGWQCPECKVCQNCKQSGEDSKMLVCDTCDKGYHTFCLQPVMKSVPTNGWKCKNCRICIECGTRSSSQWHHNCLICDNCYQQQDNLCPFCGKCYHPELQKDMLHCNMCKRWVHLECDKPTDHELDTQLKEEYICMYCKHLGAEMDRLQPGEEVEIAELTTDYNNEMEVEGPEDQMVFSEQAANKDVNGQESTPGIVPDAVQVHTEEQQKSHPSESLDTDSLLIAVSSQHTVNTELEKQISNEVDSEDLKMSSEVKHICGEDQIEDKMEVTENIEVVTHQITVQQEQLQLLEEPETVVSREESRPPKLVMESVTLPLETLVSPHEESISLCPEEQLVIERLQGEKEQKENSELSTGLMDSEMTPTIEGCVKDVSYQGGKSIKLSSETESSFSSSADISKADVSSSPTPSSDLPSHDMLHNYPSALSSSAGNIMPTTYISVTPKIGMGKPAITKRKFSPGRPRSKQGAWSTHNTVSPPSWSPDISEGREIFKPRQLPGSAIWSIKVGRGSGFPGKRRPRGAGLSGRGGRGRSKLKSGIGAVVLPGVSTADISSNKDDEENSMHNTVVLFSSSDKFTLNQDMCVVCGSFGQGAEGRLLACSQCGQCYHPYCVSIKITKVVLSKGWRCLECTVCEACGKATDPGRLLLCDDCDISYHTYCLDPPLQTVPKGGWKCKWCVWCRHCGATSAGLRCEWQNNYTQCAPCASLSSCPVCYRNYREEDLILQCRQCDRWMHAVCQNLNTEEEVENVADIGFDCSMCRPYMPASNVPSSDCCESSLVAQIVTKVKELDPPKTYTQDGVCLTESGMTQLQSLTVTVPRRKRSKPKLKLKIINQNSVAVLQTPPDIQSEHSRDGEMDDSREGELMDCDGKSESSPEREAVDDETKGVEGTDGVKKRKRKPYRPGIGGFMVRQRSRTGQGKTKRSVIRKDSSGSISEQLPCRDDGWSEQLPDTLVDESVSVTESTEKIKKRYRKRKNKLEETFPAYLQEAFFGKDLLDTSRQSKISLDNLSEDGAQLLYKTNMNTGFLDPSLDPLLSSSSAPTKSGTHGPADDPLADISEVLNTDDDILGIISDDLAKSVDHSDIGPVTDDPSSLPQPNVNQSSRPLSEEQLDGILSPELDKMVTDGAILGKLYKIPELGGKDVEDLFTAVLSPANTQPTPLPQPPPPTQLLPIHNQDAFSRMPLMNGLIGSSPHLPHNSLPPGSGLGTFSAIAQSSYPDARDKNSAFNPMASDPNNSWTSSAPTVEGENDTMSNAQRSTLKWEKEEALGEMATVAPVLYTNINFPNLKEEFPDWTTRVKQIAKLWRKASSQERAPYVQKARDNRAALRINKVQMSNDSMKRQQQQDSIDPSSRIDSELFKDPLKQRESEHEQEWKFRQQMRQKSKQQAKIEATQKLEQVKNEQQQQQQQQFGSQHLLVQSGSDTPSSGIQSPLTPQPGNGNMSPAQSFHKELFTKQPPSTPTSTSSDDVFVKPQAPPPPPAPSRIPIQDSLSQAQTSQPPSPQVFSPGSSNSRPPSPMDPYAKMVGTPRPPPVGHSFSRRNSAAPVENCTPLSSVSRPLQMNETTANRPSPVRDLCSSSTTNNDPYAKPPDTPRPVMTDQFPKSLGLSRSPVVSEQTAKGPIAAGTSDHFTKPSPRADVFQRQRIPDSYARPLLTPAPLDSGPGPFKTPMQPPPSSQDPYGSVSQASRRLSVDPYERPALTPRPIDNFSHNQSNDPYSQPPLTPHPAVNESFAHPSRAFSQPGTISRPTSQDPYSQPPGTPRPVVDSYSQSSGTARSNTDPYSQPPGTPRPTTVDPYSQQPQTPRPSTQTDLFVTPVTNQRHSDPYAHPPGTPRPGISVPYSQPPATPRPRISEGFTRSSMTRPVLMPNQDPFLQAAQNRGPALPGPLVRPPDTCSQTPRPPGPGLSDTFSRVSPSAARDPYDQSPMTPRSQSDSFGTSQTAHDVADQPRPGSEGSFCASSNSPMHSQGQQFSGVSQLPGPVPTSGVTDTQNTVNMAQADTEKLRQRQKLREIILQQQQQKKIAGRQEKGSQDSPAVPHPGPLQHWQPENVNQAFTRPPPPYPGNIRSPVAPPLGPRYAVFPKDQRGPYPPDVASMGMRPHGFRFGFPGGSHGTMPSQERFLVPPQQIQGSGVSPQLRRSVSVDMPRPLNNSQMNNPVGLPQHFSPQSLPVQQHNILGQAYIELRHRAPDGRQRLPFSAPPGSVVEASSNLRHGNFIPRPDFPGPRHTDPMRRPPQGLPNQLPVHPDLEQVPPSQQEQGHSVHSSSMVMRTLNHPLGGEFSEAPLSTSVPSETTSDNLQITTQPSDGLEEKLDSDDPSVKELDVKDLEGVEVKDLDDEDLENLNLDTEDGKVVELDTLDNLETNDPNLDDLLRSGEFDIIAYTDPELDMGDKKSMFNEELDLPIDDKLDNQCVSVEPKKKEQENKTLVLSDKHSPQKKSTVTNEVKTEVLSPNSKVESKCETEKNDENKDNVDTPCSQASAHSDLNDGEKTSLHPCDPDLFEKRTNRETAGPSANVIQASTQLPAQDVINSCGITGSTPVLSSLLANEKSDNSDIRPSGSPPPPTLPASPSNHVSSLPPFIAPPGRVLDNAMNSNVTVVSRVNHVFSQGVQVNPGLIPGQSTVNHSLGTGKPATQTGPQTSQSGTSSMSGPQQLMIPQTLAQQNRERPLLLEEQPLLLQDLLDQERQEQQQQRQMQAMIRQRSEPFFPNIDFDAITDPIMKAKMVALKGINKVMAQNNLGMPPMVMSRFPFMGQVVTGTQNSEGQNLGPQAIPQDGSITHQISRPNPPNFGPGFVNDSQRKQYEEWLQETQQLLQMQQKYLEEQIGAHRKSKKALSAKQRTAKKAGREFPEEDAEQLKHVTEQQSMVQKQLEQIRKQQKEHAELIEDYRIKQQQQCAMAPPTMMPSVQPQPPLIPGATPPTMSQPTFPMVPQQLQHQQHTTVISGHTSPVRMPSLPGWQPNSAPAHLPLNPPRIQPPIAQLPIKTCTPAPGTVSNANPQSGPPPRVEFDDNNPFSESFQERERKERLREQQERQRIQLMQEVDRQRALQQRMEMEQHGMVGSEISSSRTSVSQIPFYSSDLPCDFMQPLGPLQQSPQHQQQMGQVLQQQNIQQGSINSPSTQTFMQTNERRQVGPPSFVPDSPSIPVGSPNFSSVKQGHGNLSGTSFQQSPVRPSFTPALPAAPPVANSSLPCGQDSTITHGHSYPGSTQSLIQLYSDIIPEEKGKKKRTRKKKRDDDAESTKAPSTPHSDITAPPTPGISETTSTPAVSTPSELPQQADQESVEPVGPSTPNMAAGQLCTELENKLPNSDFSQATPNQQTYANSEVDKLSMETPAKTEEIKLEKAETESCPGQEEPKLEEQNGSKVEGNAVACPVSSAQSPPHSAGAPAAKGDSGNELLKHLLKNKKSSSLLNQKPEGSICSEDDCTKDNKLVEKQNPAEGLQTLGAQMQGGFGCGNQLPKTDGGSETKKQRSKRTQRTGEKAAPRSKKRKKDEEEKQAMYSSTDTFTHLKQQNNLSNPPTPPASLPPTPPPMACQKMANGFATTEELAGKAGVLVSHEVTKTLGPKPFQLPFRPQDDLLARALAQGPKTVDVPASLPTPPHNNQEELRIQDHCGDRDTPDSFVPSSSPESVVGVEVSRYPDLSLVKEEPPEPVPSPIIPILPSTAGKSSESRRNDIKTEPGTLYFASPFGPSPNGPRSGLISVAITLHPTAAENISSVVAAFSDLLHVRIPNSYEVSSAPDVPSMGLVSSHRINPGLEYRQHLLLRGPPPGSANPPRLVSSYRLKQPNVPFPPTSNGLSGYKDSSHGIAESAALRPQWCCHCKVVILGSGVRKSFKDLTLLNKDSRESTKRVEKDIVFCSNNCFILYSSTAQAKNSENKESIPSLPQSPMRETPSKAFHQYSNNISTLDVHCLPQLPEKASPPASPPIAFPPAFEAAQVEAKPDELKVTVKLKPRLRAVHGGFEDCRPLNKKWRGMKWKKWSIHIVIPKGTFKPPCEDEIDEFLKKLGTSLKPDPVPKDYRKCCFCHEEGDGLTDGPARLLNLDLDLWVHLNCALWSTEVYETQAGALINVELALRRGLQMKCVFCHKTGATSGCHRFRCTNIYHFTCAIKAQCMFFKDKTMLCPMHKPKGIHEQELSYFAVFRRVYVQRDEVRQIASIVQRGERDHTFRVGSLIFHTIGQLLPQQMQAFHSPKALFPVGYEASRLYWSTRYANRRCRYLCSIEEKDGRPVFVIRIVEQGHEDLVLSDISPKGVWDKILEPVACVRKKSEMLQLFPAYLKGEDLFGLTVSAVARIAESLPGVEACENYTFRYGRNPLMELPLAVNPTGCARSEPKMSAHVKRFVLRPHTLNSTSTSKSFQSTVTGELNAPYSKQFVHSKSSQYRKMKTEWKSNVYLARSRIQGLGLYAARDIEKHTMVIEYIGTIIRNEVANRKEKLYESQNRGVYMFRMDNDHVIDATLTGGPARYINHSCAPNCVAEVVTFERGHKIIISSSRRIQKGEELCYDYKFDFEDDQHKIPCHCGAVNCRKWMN

`Nc1cnc(N2CCc3cc(S(=O)(=O)Nc4c(F)cc(Cl)cc4F)cc(N4CCCC4=O)c32)nc1` [TP-020n]: the % of control in experiment [1] amounted to 87%.
In the case of `COCCN1CCC(c2cc(CN(C)C(=O)c3cccc(Oc4ccccc4)c3)ccn2)CC1`, the % activity is > 95% in experiment [2] (at 1 µM) and > 90% in experiment [2] (at 10 µM).
`CN(C)CCOc1ccc(-c2nc(-c3ccncc3)c(-c3ccc4c(c3)CC/C4=N\O)[nH]2)cc1` registered a % of control in experiment [3] of 93%.
For the molecule `C=CC(=O)Nc1cc(-n2c(=O)ccc3cnc4ccc(-c5ccc(NS(C)(=O)=O)cc5)cc4c32)ccc1C`, the % of control came out at 72% in experiment [4] (at 1 µM), 79% in experiment [4] (at 10 µM) and 51% in experiment [5].
As to `CCC(=O)N1CC[C@H](Nc2ncnc3c2CN(c2cnc(OC)c(C(F)(F)F)c2)CC3)C1` [LENIOLISIB], the IC50 in experiment [6] and in experiment [7] was > 10 µM in each case.

As a reminder, the IC50 is the concentration needed to halve the response being measured.
